{"source": "ChEMBL document CHEMBL5316286", "about": "“Inhibition of the Ubiquitin Transfer Cascade by a Peptidomimetic Foldamer Mimicking the E2 N-Terminal Helix” (J Med Chem, 2023)", "key": {"[1]": {"biological_target": "T1, Ubiquitin-like modifier-activating enzyme 1 (Homo sapiens) (UniProt P22314)", "T1 sequence (whole entry)": "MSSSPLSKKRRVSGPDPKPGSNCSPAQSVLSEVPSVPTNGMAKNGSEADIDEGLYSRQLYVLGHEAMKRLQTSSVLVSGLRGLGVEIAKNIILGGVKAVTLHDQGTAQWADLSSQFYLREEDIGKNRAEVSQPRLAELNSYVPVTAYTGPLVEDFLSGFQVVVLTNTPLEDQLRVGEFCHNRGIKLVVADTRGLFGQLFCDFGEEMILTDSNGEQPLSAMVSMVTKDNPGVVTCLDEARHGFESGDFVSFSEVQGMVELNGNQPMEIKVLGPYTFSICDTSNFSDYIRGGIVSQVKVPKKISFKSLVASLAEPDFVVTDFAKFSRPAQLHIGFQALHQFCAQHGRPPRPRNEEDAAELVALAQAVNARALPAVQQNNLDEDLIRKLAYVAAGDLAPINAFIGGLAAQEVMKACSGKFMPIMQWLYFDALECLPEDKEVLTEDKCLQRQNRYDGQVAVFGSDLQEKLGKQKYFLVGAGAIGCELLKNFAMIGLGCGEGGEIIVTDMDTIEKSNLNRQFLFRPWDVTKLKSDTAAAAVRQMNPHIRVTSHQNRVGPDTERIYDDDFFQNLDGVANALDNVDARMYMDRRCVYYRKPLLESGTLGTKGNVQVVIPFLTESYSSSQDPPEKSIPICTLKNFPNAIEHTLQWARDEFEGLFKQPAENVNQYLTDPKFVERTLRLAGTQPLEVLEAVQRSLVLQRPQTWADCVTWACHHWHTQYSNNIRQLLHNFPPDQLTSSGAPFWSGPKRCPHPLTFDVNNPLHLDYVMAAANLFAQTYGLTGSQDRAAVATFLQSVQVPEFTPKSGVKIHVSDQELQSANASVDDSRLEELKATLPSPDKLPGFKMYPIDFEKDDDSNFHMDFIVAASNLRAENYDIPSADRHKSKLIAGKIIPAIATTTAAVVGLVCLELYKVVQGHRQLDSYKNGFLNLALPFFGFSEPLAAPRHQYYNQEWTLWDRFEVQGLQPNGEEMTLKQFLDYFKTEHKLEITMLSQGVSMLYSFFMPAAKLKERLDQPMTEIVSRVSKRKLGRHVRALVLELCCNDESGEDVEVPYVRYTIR", "assay": "Binding affinity to His-tagged Uba1 (unknown origin)-coated Ni-NTA beads assessed as measuring green fluorescence at 10 uM incubated for 30 mins by laser scanning microscopy"}, "[2]": {"biological_target": "T2, E3 ubiquitin-protein ligase CHIP (Homo sapiens) (UniProt Q9UNE7)", "T2 sequence (whole entry)": "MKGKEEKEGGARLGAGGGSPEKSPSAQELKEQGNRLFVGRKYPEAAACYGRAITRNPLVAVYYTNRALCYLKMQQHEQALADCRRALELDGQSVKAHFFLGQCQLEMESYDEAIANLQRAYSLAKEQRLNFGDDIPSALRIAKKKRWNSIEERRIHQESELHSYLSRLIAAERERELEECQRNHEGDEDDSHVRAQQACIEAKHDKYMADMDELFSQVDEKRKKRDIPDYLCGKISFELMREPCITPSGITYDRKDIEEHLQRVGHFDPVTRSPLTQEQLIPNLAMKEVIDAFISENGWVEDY", "assay": "(§1) Inhibition of N-terminal Flag-tagged full-length U-box E3 CHIP (unknown origin) self-ubiquitination expressed in Escherichia coli BL21 (DE3) cells assessed as inhibition of Uba1-UbcH5B-CHIP cascade at upto 50 uM preincubated for 30 mins followed by ubiquitin addition measured after 1 hr by Western blot analysis", "settings": "time 90.0 min"}, "[3]": {"biological_target": "T2, E3 ubiquitin-protein ligase CHIP (Homo sapiens)", "assay": "as §1, with “decrease in polyubiquitination” for “inhibition of Uba1-UbcH5B-CHIP cascade”", "settings": "time 90.0 min"}, "[4]": {"biological_target": "T2, E3 ubiquitin-protein ligase CHIP (Homo sapiens)", "assay": "Inhibition of N-terminal Flag-tagged full-length U-box E3 CHIP (unknown origin)-mediated CDK4 monoubiquitination expressed in Escherichia coli BL21 (DE3) cells upto 50 uM preincubated for 30 mins followed by ubiquitin addition measured after 1 hr by Western blot analysis", "settings": "time 90.0 min"}, "[5]": {"assay": "Stability of compound in ammonium bicarbonate buffer at pH 7.8 at 0.1 mg/ml incubated for 24 hrs by HPLC/MS analysis", "type": "physicochemical", "settings": "pH 7.8, 24 h"}, "[6]": {"assay": "Stability of compound in human serum at 1 mg incubated for 24 hrs by HPLC analysis", "type": "ADME, cell-free"}, "[7]": {"biological_target": "T2, E3 ubiquitin-protein ligase CHIP (Homo sapiens)", "assay": "Inhibition of CHIP (unknown origin) self-ubiquitination upto 50 uM in presence of ubiquitin-preloaded UbcH5B by Western blot analysis"}, "[8]": {"assay": "Aggregation propensity of the compound in D2O assessed as signal shift at 1 mM measured after 10 days by 1H-NMR analysis", "type": "physicochemical", "settings": "240 h, 1000 µM, time 10 day"}, "[9]": {"biological_target": "Cyclin-dependent kinase 4 (Homo sapiens) (UniProt P11802)", "sequence (P11802 whole entry)": "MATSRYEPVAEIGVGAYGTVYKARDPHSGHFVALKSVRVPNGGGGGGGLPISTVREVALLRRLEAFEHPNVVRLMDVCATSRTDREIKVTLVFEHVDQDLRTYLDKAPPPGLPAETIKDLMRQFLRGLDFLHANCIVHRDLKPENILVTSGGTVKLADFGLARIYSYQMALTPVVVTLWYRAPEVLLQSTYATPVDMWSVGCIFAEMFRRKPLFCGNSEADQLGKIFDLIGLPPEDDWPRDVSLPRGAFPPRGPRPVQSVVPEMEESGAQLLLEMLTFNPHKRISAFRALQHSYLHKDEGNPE", "assay": "Inhibition of CDK4 ubiquitination in HEK293 cells overexpressing CHIP upto 50 uM by Western blot analysis", "type": "cell-based"}, "[10]": {"biological_target": "T2, E3 ubiquitin-protein ligase CHIP (Homo sapiens)", "assay": "Inhibition of N-terminal Flag-tagged full-length U-box E3 CHIP (unknown origin) self-ubiquitination expressed in Escherichia coli BL21 (DE3) cells assessed as decrease in polyubiquitination at 50 uM preincubated for 30 mins followed by ubiquitin addition measured after 1 hr by Western blot analysis", "settings": "time 90.0 min"}, "Homo sapiens": {"species_on_record": "Homo sapiens", "assay": "Disruption of Uba1/UbcH5B (unknown origin) interaction assessed as inhibition of UbcH5B-ubiquitin conjugate formation at 50 uM preincubated for 30 mins followed by ubiquitin addition measured after 30 mins by Western blot analysis"}, "HEK293": {"tested_on": "HEK293", "assay": "Cytotoxicity against HEK293 cells assessed as cell membrane disruption upto 100 uM incubated for 24 hrs by DAPI/PI staining based confocal microscopy", "type": "toxicity", "settings": "human, hek293, 24 h"}, "Erythrocyte": {"tested_on": "Erythrocyte", "assay": "Hemolytic activity in human RBC assessed as cell membrane disruption upto 400 uM incubated for 1 hr by microplate reader analysis", "type": "toxicity, cell-based"}, "[11]": {"biological_target": "T2, E3 ubiquitin-protein ligase CHIP (Homo sapiens)", "assay": "Inhibition of CHIP-mediated CDK4 ubiquitination in HEK293T cells upto 50 uM preincubated for 14 hrs followed by MG132 addition measured after 12 hrs by Western blot analysis", "type": "cell-based", "settings": "time 26.0 hrs"}, "[12]": {"assay": "Aggregation propensity of the compound in D2O assessed as signal shift at 1 mM measured for 24 hrs by 1H-NMR analysis", "type": "physicochemical", "settings": "1000 µM"}}, "note": "Calls of active or inactive are those of the source. The rule behind the calls is not given here. *1 amine or outer side, *2 acyl side, *3 side chain or, on linkers, in order; H or OH if unused. Where a SMILES comes first, the peptide text is derived from it. [ ]: non-standard residue; d: D form. X1 = N=C(N)CCCC[C@H](N[*:1])C(=O)[*:2]", "data": [{"smiles": "COc1ccc(S(=O)(=O)N(CC(=O)N[C@@H](CCCCN)CN(CC(=O)N[C@@H](CCCCN)CN(CC(=O)N[C@@H](CC(C)C)CN(CC(=O)N[C@@H](CCCCN)CN(CC(=O)N[C@@H](CC(C)C)CN(CC(=O)N[C@@H](CCCCN)CN(CC(=O)N[C@@H](CC(C)C)CN(CC(N)=O)S(=O)(=O)CCN)S(C)(=O)=O)S(=O)(=O)CC(C)C)S(C)(=O)=O)S(=O)(=O)CCN)S(=O)(=O)CCN)S(C)(=O)=O)C[C@H](CCCCN)NC(C)=O)cc1", "values": [{"measurement": "Activity", "setting": "[1]", "value": "inactive"}, {"measurement": "inhibition", "setting": "[2]", "value": "inactive"}]}, {"smiles": "CC(=O)N[C@H](CO)CN(CC(=O)N[C@H](C)CN(CC(=O)N[C@H](CCCCN)CN(CC(=O)N[C@H](CC(C)C)CN(CC(=O)N[C@H](CCCCN)CN(CC(=O)N[C@H](CC(C)C)CN(CC(=O)N[C@H](CCC(=O)O)CN(CC(=O)N[C@H](CCCCN)CN(CC(N)=O)S(=O)(=O)CCN)S(=O)(=O)CC(C)C)S(=O)(=O)CCN)S(C)(=O)=O)S(=O)(=O)CCN)S(=O)(=O)CCN)S(=O)(=O)CC(C)C)S(=O)(=O)CC(C)C", "values": [{"measurement": "inhibition", "setting": "[2]", "value": "inactive"}]}, {"smiles": "CC(=O)N[C@H](CO)CN(CC(=O)N[C@@H]1CCCCNC(=O)c2ccc(cc2)C(=O)NCCCC[C@H](CN(CC(=O)N[C@H](CCCCN)CN(CC(=O)N[C@H](CC(C)C)CN(CC(=O)N[C@H](CCC(=O)O)CN(CC(=O)N[C@H](CCCCN)CN(CC(N)=O)S(=O)(=O)CCN)S(=O)(=O)CC(C)C)S(=O)(=O)CCN)S(C)(=O)=O)S(C)(=O)=O)NC(=O)CN(S(=O)(=O)CCN)C[C@@H](CCCCN)NC(=O)CN(S(C)(=O)=O)C1)S(=O)(=O)CC(C)C", "values": [{"measurement": "inhibition", "setting": "[3]", "value": "inactive"}, {"measurement": "inhibition", "setting": "[4]", "value": "inactive"}]}, {"smiles": "COc1ccc(S(=O)(=O)N(CC(=O)N[C@@H]2CCCCNC(=O)c3ccc(cc3)C(=O)NCCCC[C@H](CN(CC(=O)N[C@H](CCCCN)CN(CC(=O)N[C@H](CC(C)C)CN(CC(=O)N[C@H](CCCCN)CN(CC(=O)N[C@H](CC(C)C)CN(CC(N)=O)S(=O)(=O)CCN)S(C)(=O)=O)S(=O)(=O)CC(C)C)S(C)(=O)=O)S(C)(=O)=O)NC(=O)CN(S(=O)(=O)CCN)C[C@@H](CCCCN)NC(=O)CN(S(C)(=O)=O)C2)C[C@@H](CCCCN)NC(C)=O)cc1", "values": [{"measurement": "Stability", "setting": "[5]", "value": "Stable"}, {"measurement": "Stability", "setting": "[6]", "value": "Stable"}, {"measurement": "inhibition", "setting": "[7]", "value": "inactive"}, {"measurement": "Activity", "setting": "[8]", "value": "Active"}, {"measurement": "inhibition", "setting": "[9]", "value": "Active"}, {"measurement": "inhibition", "setting": "[10]", "value": "Active"}, {"measurement": "inhibition", "setting": "Homo sapiens", "value": "Active"}, {"measurement": "Activity", "setting": "HEK293", "value": "Non-Toxic"}, {"measurement": "Activity", "setting": "Erythrocyte", "value": "Non-Toxic"}, {"measurement": "inhibition", "setting": "[4]", "value": "Active"}, {"measurement": "inhibition", "setting": "[11]", "value": "Active"}, {"measurement": "Activity", "setting": "[12]", "value": "Not Active"}]}, {"smiles": "CC(=O)N[C@H](CO)CN(CC(=O)N[C@H](C)CN(CC(=O)N[C@H](CCCCN)CN(CC(=O)N[C@@H]1CCCCNC(=O)c2ccc(cc2)C(=O)NCCCC[C@H](CN(CC(=O)N[C@H](CCC(=O)O)CN(CC(=O)N[C@H](CCCCN)CN(CC(N)=O)S(=O)(=O)CCN)S(=O)(=O)CC(C)C)S(C)(=O)=O)NC(=O)CN(S(C)(=O)=O)C[C@@H](CCCCN)NC(=O)CN(S(C)(=O)=O)C1)S(=O)(=O)CCN)S(=O)(=O)CC(C)C)S(=O)(=O)CC(C)C", "values": [{"measurement": "inhibition", "setting": "[3]", "value": "inactive"}, {"measurement": "inhibition", "setting": "[4]", "value": "inactive"}]}, {"smiles": "CC(=O)N[C@H](CO)CN(CC(=O)N[C@H](C)CN(CC(=O)N[C@H](CCCCN)CN(CC(=O)N[C@H](CC(C)C)CN(CC(=O)N[C@H](CCCCN)CN(CC(=O)N[C@@H]1CCCCNC(=O)c2ccc(cc2)C(=O)NCCCC[C@H](CN(CC(N)=O)S(C)(=O)=O)NC(=O)CN(S(=O)(=O)CC(C)C)C[C@@H](CCC(=O)O)NC(=O)CN(S(C)(=O)=O)C1)S(C)(=O)=O)S(=O)(=O)CCN)S(=O)(=O)CCN)S(=O)(=O)CC(C)C)S(=O)(=O)CC(C)C", "values": [{"measurement": "inhibition", "setting": "[3]", "value": "inactive"}, {"measurement": "inhibition", "setting": "[4]", "value": "inactive"}]}, {"smiles": "CC[C@H](C)[C@H](NC(=O)[C@H](CCC(=O)O)NC(=O)[C@H](CCCCN)NC(=O)[C@H](CCSC)NC(=O)[C@@H](NC(=O)[C@H](CCCNC(=N)N)NC(=O)[C@H](CCCCN)NC(=O)[C@H](C)NC(=O)[C@H](CCCCC(=N)N)NC(=O)[C@H](CO)NC(=O)[C@H](CO)NC(C)=O)[C@@H](C)CC)C(=O)N[C@@H](CCC(N)=O)C(=O)N[C@@H](C)C(=O)N[C@H](C(=O)N[C@@H](CCCCN)C(=O)N[C@@H](CC(=O)O)C(N)=O)C(C)C", "note": "(Ac-SS[X1]AKRIMKEIQAVKD-NH2)", "values": [{"measurement": "Stability", "setting": "[5]", "value": "Stable"}, {"measurement": "Stability", "setting": "[6]", "value": "Stable"}]}, {"smiles": "COc1ccc(S(=O)(=O)N(CC(=O)N[C@H](CCCCN)CN(CC(=O)N[C@H](CCCCN)CN(CC(=O)N[C@H](CC(C)C)CN(CC(=O)N[C@H](CCCCN)CN(CC(=O)N[C@@H]2CCCCNC(=O)c3ccc(cc3)C(=O)NCCCC[C@H](CN(CC(N)=O)S(C)(=O)=O)NC(=O)CN(S(C)(=O)=O)C[C@@H](CCCCN)NC(=O)CN(S(C)(=O)=O)C2)S(C)(=O)=O)S(=O)(=O)CCN)S(=O)(=O)CCN)S(C)(=O)=O)C[C@@H](CCCCN)NC(C)=O)cc1", "values": [{"measurement": "inhibition", "setting": "[10]", "value": "Active"}, {"measurement": "inhibition", "setting": "[4]", "value": "inactive"}]}]}
